These results are taken from patent publication US20240376120A1, “CAMPTOTHECIN COMPOUND, PREPARATION METHOD THEREFOR AND USE THEREOF” (priority 2021, published 2024).

One experiment concerns MDA-MB-435s cells (human melanoma cells). Description: MDA-MB-435s cell proliferation inhibitory assay (CellTiter-Glo). To be noted: Homo sapiens, MDA-MB-435S, 72 h, read-out: Proliferation inhibition IC50. The experiment is classed as cell-based. Here is the method:
(§1) • 1). […] Resuspend an appropriate amount of cell suspension to 3000 cells/100 μL according to the count, mixed well and then put the corresponding number of cells into a 96-well plate by pipette. • 3). Each hole of the edge was sealed with 100 μL DPBS and put into an incubator for culture. • 4). Day 1 drug addition: Prepare the storage solution of the compound to be tested 1 hour in advance. 24 h after plating, the culture medium was gradiently diluted to a concentration twice the final concentration of each group. Take out the plated cells from the incubator and add 100 μL of the corresponding 2-fold concentration medium to each well by pipette. • 5). Day 1 detected: Take out an appropriate amount of CTG 1 h in advance and the plate was allowed to equilibrate at room temperature for 30 min. 100 μL of CTG was added to each well and shaken for 5 mins, and then standed in the dark for 5 mins, the luminescence value was detected by ELISA. • 6). Day 4 detection: Take an appropriate amount of CTG 1 h in advance and rewarm it at room temperature in the dark. At the same time, take out the plate to be tested from the incubator and leave it to equilibrate at room temperature for 30 minutes; 72 h after adding the drug, 100 μL of culture medium was sucked out with pipette carefully from each cell well, and 100 μL of CTG was added. The mixture was shaken for 5 min, and after equilibration in the dark for 5 min, the luminescence value was detected with ELISA. • 7). Analyze data and write detailed experimental records.
Collect data and convert it into survival rate: Inhibition rate (%)=(100−(OD value of compound−OD value on the first day)/(OD value of control well-OD value on the first day))×100%
(§2) Input the compound into graphpad prism to obtain the corresponding IC50 value.
For orientation: Cellular ATP, detected with luciferase, serves as a proxy for viable cell number.
For the molecule `CC[C@@]1(O)C(=O)OCc2c1cc1n(c2=O)Cc2cc3ccccc3nc2-1` [Camptothecin], the IC50 amounted to 10.2 nM.

Take `CC[C@@]1(O)C(=O)OCc2c1cc1n(c2=O)Cc2c-1nc1cc(F)c(C)cc1c2[C@@H](C)NC(C)=O` [Compound 1f-1]: the IC50 stood at 5.8 nM.

For the molecule `CC[C@@]1(O)C(=O)OCc2c1cc1n(c2=O)Cc2c-1nc1cc(F)c(C)cc1c2[C@H](C)NC(C)=O` [Compound 1f-2], the IC50 is 3.5 nM.

`CC[C@@]1(O)C(=O)OCc2c1cc1n(c2=O)Cc2c-1nc1cc(F)c(C)cc1c2[C@H](C)N` [Example 2]: the IC50 came to 2.3 nM.

`CC[C@@]1(O)C(=O)OCc2c1cc1n(c2=O)Cc2c-1nc1ccccc1c2[C@@H](C)N` [Example 3]: the IC50 was 11.2 nM.

Turning to `CC[C@@]1(O)C(=O)OCc2c1cc1n(c2=O)Cc2c-1nc1ccccc1c2[C@H](C)N` [Example 4], the IC50 was 16.3 nM.

In the case of `CC[C@@]1(O)C(=O)OCc2c1cc1n(c2=O)Cc2c-1nc1ccc(O)cc1c2[C@@H](C)N` [Example 5], the IC50 worked out at 20.3 nM.

In the case of `CC[C@@]1(O)C(=O)OCc2c1cc1n(c2=O)Cc2c-1nc1ccc(O)cc1c2[C@H](C)N` [Example 6], the IC50 was determined as 36.8 nM.

In the case of `CC[C@@]1(O)C(=O)OCc2c1cc1n(c2=O)Cc2c-1nc1cc(F)c(C)cc1c2C(C)(C)N` [Example 7], the IC50 is 162 nM.

On to `CC[C@@]1(O)C(=O)OCc2c1cc1n(c2=O)Cc2c-1nc1cc(F)c(C)cc1c2[C@@H]1CCCN1` [Example 8], for which the IC50 amounted to 35.2 nM.

`CC[C@@H](N)c1c2c(nc3ccccc13)-c1cc3c(c(=O)n1C2)COC(=O)[C@]3(O)CC` [Example 9R]: the IC50 worked out at 15.3 nM.

Consider `CC[C@H](N)c1c2c(nc3ccccc13)-c1cc3c(c(=O)n1C2)COC(=O)[C@]3(O)CC` [Example 9], for which the IC50 was determined as 25.3 nM.

Consider `CC[C@@]1(O)C(=O)OCc2c1cc1n(c2=O)Cc2c-1nc1ccc(O)cc1c2[C@H](C)O` [Example 12-1], for which the IC50 came out at 38.2 nM.

As to `CC[C@@]1(O)C(=O)OCc2c1cc1n(c2=O)Cc2c-1nc1ccc(O)cc1c2C(C)O` (some centres unmarked) [Example 12], the IC50 turned out to be 59.3 nM.

In the case of `CC[C@@]1(O)C(=O)OCc2c1cc1n(c2=O)Cc2c-1nc1cc(F)c(C)cc1c2[C@@H](C)O` [Example 12d], the IC50 was determined as 1.6 nM.

The experiment is the same for the next values; noted with them: Homo sapiens, MDA-MB-435S, read-out: MDA-MB-435s Proliferation inhibition IC50.
`CC[C@@]1(O)C(=O)OCc2c1cc1n(c2=O)Cc2c-1nc1cc(F)c(C)cc1c2[C@@H](C)O` [Example 12d]: the IC50 is 1.6 nM.

The next experiment concerns MCF-7 cells (human breast cancer cells). The experiment can be described thus: MCF-7 cell proliferation inhibitory assay (CellTiter-Glo). It is filed as cell-based. To be noted: Homo sapiens, MCF7, 72 h, read-out: Proliferation inhibition IC50. Here is the method:
• 1). […] Resuspend an appropriate amount of cell suspension to 4000 cells/100 μL according to the count, mixed well and then put the corresponding number of cells into a 96-well plate by pipette. • 3). Each hole of the edge was sealed with 100 μL DPBS and put into an incubator for culture. • 4). Day 1 drug addition: Prepare the storage solution of the compound to be tested 1 hour in advance. 24 h after plating, the culture medium was gradiently diluted to a concentration twice the final concentration of each group. Take out the plated cells from the incubator and add 100 μL of the corresponding 2-fold concentration medium to each well by pipette.
Day 1 detected: Take out the plate to be tested and an appropriate amount of CTG in advance and rewarm it at room temperature in the dark. 50 μL of CTG was added to each well at 24 h. Shake with the oscillator for 5 minutes, and after balancing in the dark for 5 minutes, detect the luminescence value with a microplate reader; The mixture was shaken for 5 min, and after equilibration in the dark for 5 min, the luminescence value was detected with ELISA. • 6). Day 4 detection: Take an appropriate amount of CTG 1 h in advance and rewarm it at room temperature in the dark. At the same time, take out the plate to be tested from the incubator and leave it to equilibrate at room temperature for 30 minutes; 72 h after adding the drug, 100 μL of culture medium was sucked out with pipette carefully from each cell well, and 50 μL of CTG was added. The mixture was shaken for 5 min, and after equilibration in the dark for 5 min, the luminescence value was detected with ELISA analyzer. • 7). Data analysis and processed.
Collect data and convert it into survival rate: Inhibition rate (%)=(100−(OD value of compound-OD value on the first day)/(OD value of control well-OD value on the first day))×100%
as §2
On to `CC[C@@]1(O)C(=O)OCc2c1cc1n(c2=O)Cc2cc3ccccc3nc2-1` [Camptothecin], for which the IC50 amounted to 42.2 nM.

With `CC[C@@]1(O)C(=O)OCc2c1cc1n(c2=O)Cc2c-1nc1cc(F)c(C)cc1c2[C@@H](C)NC(C)=O` [Compound 1f-1], the IC50 worked out at 15.2 nM.

`CC[C@@]1(O)C(=O)OCc2c1cc1n(c2=O)Cc2c-1nc1cc(F)c(C)cc1c2[C@H](C)NC(C)=O` [Compound 1f-2]: the IC50 was determined as 11.6 nM.

As to `CC[C@@]1(O)C(=O)OCc2c1cc1n(c2=O)Cc2c-1nc1cc(F)c(C)cc1c2[C@H](C)N` [Example 2], the IC50 stood at 2.6 nM.

Consider `CC[C@@]1(O)C(=O)OCc2c1cc1n(c2=O)Cc2c-1nc1ccccc1c2[C@@H](C)N` [Example 3], for which the IC50 amounted to 15.5 nM.

`CC[C@@]1(O)C(=O)OCc2c1cc1n(c2=O)Cc2c-1nc1ccccc1c2[C@H](C)N` [Example 4]: the IC50 is 10.2 nM.

In the case of `CC[C@@]1(O)C(=O)OCc2c1cc1n(c2=O)Cc2c-1nc1ccc(O)cc1c2[C@@H](C)N` [Example 5], the IC50 was determined as 12.3 nM.

For the molecule `CC[C@@]1(O)C(=O)OCc2c1cc1n(c2=O)Cc2c-1nc1ccc(O)cc1c2[C@H](C)N` [Example 6], the IC50 turned out to be 8.4 nM.

For the molecule `CC[C@@]1(O)C(=O)OCc2c1cc1n(c2=O)Cc2c-1nc1cc(F)c(C)cc1c2C(C)(C)N` [Example 7], the IC50 was found to be 20.2 nM.

For the molecule `CC[C@@]1(O)C(=O)OCc2c1cc1n(c2=O)Cc2c-1nc1cc(F)c(C)cc1c2[C@@H]1CCCN1` [Example 8], the IC50 was 10.3 nM.

`CC[C@@H](N)c1c2c(nc3ccccc13)-c1cc3c(c(=O)n1C2)COC(=O)[C@]3(O)CC` [Example 9R]: the IC50 came to 55.3 nM.

In the case of `CC[C@H](N)c1c2c(nc3ccccc13)-c1cc3c(c(=O)n1C2)COC(=O)[C@]3(O)CC` [Example 9], the IC50 is 25.2 nM.

For the molecule `CC[C@@]1(O)C(=O)OCc2c1cc1n(c2=O)Cc2c-1nc1ccc(O)cc1c2[C@H](C)O` [Example 12-1], the IC50 turned out to be 32.2 nM.

Take `CC[C@@]1(O)C(=O)OCc2c1cc1n(c2=O)Cc2c-1nc1ccc(O)cc1c2C(C)O` (some centres unmarked) [Example 12]: the IC50 is 50.3 nM.

For the molecule `CC[C@@]1(O)C(=O)OCc2c1cc1n(c2=O)Cc2c-1nc1cc(F)c(C)cc1c2[C@@H](C)O` [Example 12d], the IC50 worked out at 6.8 nM.

The same experiment, now with this note: Homo sapiens, MCF7, read-out: MCF-7 Proliferation inhibition IC50.
For `CC[C@@]1(O)C(=O)OCc2c1cc1n(c2=O)Cc2c-1nc1cc(F)c(C)cc1c2[C@@H](C)O` [Example 12d], the IC50 turned out to be 6.8 nM.

The next experiment deals with MDA-MB-231 cells (human breast cancer cells). The experiment can be described thus: MDA-MB-231 cell proliferation inhibitory assay (CellTiter-Glo). To be noted: Homo sapiens, MDA-MB-231, 72 h, read-out: Proliferation inhibition IC50. The experiment is classed as cell-based. How it is done:
as §1, §2
For the molecule `CC[C@@]1(O)C(=O)OCc2c1cc1n(c2=O)Cc2c-1nc1cc(F)c(C)cc1c2[C@@H](C)NC(C)=O` [Compound 1f-1], the IC50 was determined as 110 nM.

As for `CC[C@@]1(O)C(=O)OCc2c1cc1n(c2=O)Cc2c-1nc1cc(F)c(C)cc1c2[C@H](C)NC(C)=O` [Compound 1f-2], the IC50 came out at 74.2 nM.

For the molecule `CC[C@@]1(O)C(=O)OCc2c1cc1n(c2=O)Cc2c-1nc1cc(F)c(C)cc1c2[C@H](C)N` [Example 2], the IC50 worked out at 15.7 nM.

Regarding `CC[C@@]1(O)C(=O)OCc2c1cc1n(c2=O)Cc2c-1nc1ccccc1c2[C@@H](C)N` [Example 3], the IC50 was determined as 120 nM.

For the molecule `CC[C@@]1(O)C(=O)OCc2c1cc1n(c2=O)Cc2c-1nc1ccccc1c2[C@H](C)N` [Example 4], the IC50 was 280 nM.

With `CC[C@@]1(O)C(=O)OCc2c1cc1n(c2=O)Cc2c-1nc1ccc(O)cc1c2[C@@H](C)N` [Example 5], the IC50 was found to be 600 nM.

In the case of `CC[C@@]1(O)C(=O)OCc2c1cc1n(c2=O)Cc2c-1nc1ccc(O)cc1c2[C@H](C)N` [Example 6], the IC50 was 1100 nM.

On to `CC[C@@]1(O)C(=O)OCc2c1cc1n(c2=O)Cc2c-1nc1cc(F)c(C)cc1c2C(C)(C)N` [Example 7], for which the IC50 was determined as 320 nM.

Turning to `CC[C@@]1(O)C(=O)OCc2c1cc1n(c2=O)Cc2c-1nc1cc(F)c(C)cc1c2[C@@H]1CCCN1` [Example 8], the IC50 turned out to be 210 nM.

In the case of `CC[C@@H](N)c1c2c(nc3ccccc13)-c1cc3c(c(=O)n1C2)COC(=O)[C@]3(O)CC` [Example 9R], the IC50 was 180 nM.

As to `CC[C@H](N)c1c2c(nc3ccccc13)-c1cc3c(c(=O)n1C2)COC(=O)[C@]3(O)CC` [Example 9], the IC50 amounted to 310 nM.

`CC[C@@]1(O)C(=O)OCc2c1cc1n(c2=O)Cc2c-1nc1ccc(O)cc1c2[C@H](C)O` [Example 12-1]: the IC50 amounted to 500 nM.

In the case of `CC[C@@]1(O)C(=O)OCc2c1cc1n(c2=O)Cc2c-1nc1ccc(O)cc1c2C(C)O` (some centres unmarked) [Example 12], the IC50 turned out to be 1200 nM.

With `CC[C@@]1(O)C(=O)OCc2c1cc1n(c2=O)Cc2c-1nc1cc(F)c(C)cc1c2[C@@H](C)O` [Example 12d], the IC50 is 12.3 nM.

The same experiment, now with this note: Homo sapiens, MDA-MB-231, read-out: MDA-MB-231 Proliferation inhibition IC50.
On to `CC[C@@]1(O)C(=O)OCc2c1cc1n(c2=O)Cc2c-1nc1cc(F)c(C)cc1c2[C@@H](C)O` [Example 12d], for which the IC50 is 12.3 nM.
